Measured values: patent publication US11618883B2, “Method for producing retinal pigment epithelial cells” (SUMITOMO PHARMA CO., LTD., priority 2017, dated 2023)

Tests used:
[1] = test system: human iPS cells (QHJI01 line); test: Production of RPE cells from iPS cells with a ROCK inhibitor or caspase inhibitor in the second step; visual observation of brown-black cell population; type: cell-based
[2] = test system: human iPS cells (201B7, 1231A3, Ff-I01, QHJI01 lines); test: Production of RPE cells including MEK inhibitor or FGF receptor inhibitor treatment step (first step); observation of brown-black cell population; type: cell-based; conditions: for concentrations at which emergence of a brown-black cell population could be confirmed over a wide area: first step 6 days, QHJI01 line, day 36 and day 49 of culture; for emergence of RPE cells showing typical characteristics of RPE cell: 38 to 47 days of culture
Description: In one embodiment, to study the effect of the FGF receptor inhibitor in a medium free of a factor for maintaining undifferentiated state (bFGF), STEMSURE™ hPSC Medium Δ (Wako Pure Chemical Industries, Ltd.) (hereinafter STEMSURE™ hPSC Medium Δ w/o bFGF) not added with bFGF was used.
2014 Jan. 8; 4: 3594”. The medium used was STEMFIT™ AK03N medium (Ajinomoto Co., Inc.) (hereinafter AK03N medium).

[3] = test system: human iPS cells (1231A3 line); test: Production of RPE cells from iPS cells with a ROCK inhibitor in the second step; visual observation of brown-black cell population; type: cell-based; conditions: for concentration at which emergence of a brown-black cell population could be visually confirmed: second step
Protocol: 2014 Jan. 8; 4: 3594”. The medium used was […] A[…] medium (Ajinomoto Co., Inc.) (hereinafter AK03 medium). […] On the next day of seeding, FGF receptor inhibitor PD173074 (SIGMA) (final concentration 100 nM) was added to the A[…] medium (start of the first step), the medium was exchanged with A[…] medium added with an FGF receptor inhibitor every other day, and the cells were exposed to the FGF receptor inhibitor for 6 days in total (completion of the first step). […] On the first day of culture, A[…] (final concentration 10 μM) or A[…] medium without addition of Y-27632 as a comparison target was used. […] 2014 Jan. 8; 4: 3594”. The medium used was […] A[…] medium (Ajinomoto Co., Inc.) (hereinafter A[…] medium). […] On the next day of seeding, FGF receptor inhibitor PD173074 (SIGMA) (final concentration 100 nM) or MEK inhibitor PD0325901 (SIGMA) (final concentration 1 μM) was added to the A[…] medium (start of the first step), the medium was exchanged with A[…] medium added with an FGF receptor inhibitor or MEK inhibitor every other day, and the cells were exposed to FGF receptor inhibitor or MEK inhibitor for 6 days in total (completion of the first step). […] In the case of 1231A3 line, on the first day of culture, A[…] to a final concentration of 1 μM, 3 μM, 10 μM, 30 μM or 100 μM or, as a comparison target, A[…] medium without addition of Y-27632 was used. […] 2014 Jan. 8; 4: 3594”. The medium used was […] A[…] medium (Ajinomoto Co., Inc.) (hereinafter A[…] medium). […] On the next day of seeding, FGF receptor inhibitor PD173074 (SIGMA) (final concentration 100 nM) was added to the A[…] medium (start of the first step), the medium was exchanged every other day using A[…] medium added with FGF receptor inhibitor, and the cells were exposed to FGF receptor inhibitor for 6 days in total (completion of the first step). […] In the case of 1231A3 line, on the first day of culture, A[…] medium added with ROCK inhibitor Fasudil (Wako Pure Chemical Industries, Ltd.) to a final concentration of 10 μM, 30 μM or 100 μM or, as a comparison target, A[…] medium without addition of Fasudil was used.

[4] = test system: human iPS cells (QHJI01 line); test: Differentiation induction effect of Nodal and/or Wnt signal transduction pathway inhibitor in the second step; type: cell-based; conditions: for emergence of cells showing typical characteristics of RPE cell: second step days 1-12 with 10 μM Y-27632 plus 5 μM SB-431542 and/or 3 μM CKI-7, first step 1 μM PD0325901, day 43
Protocol: Production of retinal pigment epithelial (RPE) cells including an MEK inhibitor treatment step was performed as follows. iPS cells under culture for maintaining undifferentiated state were treated with 0.5×TRYPLE™ Select cell dissociation solution (mixture of equal amounts of TRYPLE™ Select cell dissociation solution (Life Technologies) and 0.5 mM EDTA/PBS(−)), dissociated using a cell scraper, dispersed to single cells by pipetting, seeded in a 6-well culture plate coated with IMATRIX™-511 laminin 511 E8 fragment (Nippi) (0.5 μg/cm^2) at 2.0×10^4 cells per 1 well and cultured in a ROCK inhibitor [10 μM Y-27632 (Wako Pure Chemical Industries, Ltd.)]-containing AK03N medium under 37° C., 5% CO2 conditions. On the next day of seeding, PD0325901 (SIGMA) (final concentration 1 μM) as MEK inhibitor was added to the AK03N medium (start of the first step) and the cells were exposed thereto for 6 days (completion of the first step). Thereafter, the cells were treated with 0.5×TRYPLE™ Select cell dissociation solution, dissociated using a cell scraper, dispersed to single cells by pipetting, seeded in a 12-well culture plate coated with IMATRIX™-511 laminin 511 E8 fragment (0.5 μg/cm^2) at 0.8×10^5 cells per 1 well and cultured under 37° C., 5% CO2 conditions (start of the second step). In the second step, the following 3 kinds of media were used. […]

RPE65, BEST1, CRALBP = test: RT-PCR of retinal pigment epithelial cell markers after MEK inhibitor or FGF receptor inhibitor treatment step; type: cell-based, human; conditions: first step 6 days (1 μM PD0325901 or 100 nM PD173074); 1231A3 line; day 43; bands very thin when untreated
Protocol: 2014 Jan. 8; 4: 3594”. The medium used was […] A[…] medium (Ajinomoto Co., Inc.) (hereinafter A[…] medium). […] After observation on day 43 of culture, the cells were collected, RNA was extracted and RT-PCR was performed. RNEASYTM Micro Kit (QIAGEN) was used for RNA extraction, Oligo(dT)12-18Primer (Invitrogen) and SUPERSCRIPTTM III Reverse Transcriptase (Invitrogen) were used for reverse transcription reaction, and BLEND TAQTM-Plus-(TOYOBO) was used for PCR. The primer sequences of RPE65, BEST1, CRLBP, GAPDH are as described below. […] NO: 1), […] NO: 2), […] NO: 3), […] NO: 4), CRALBP-[…] NO: 5), CRALBP-[…] NO: 6), […] NO: 7), […] NO: 8). The number of cycles of the PCR reaction was 30 cycles for RPE65, BEST1, GAPDH, and 35 cycles for CRALBP. PCR products were detected as a single band by agarose gel electrophoresis at near 369 bp for RPE65, near 261 bp for BEST1, near 341 bp for CRALBP, and near 452 bp for GAPDH. As a positive control, primary human RPE (hRPE) was used and, as a negative control, iPS cells (undifferentiated iPSC) cultured under conditions for maintaining undifferentiated state were used.

[5] = first step 6 days: 1 μM PD0325901, 1.5, 3, 6 μM PD184352, 5, 10 μM U0126, 0.3 μM TAK-733, 0.3 μM AZD-8330, QHJI01 and 1231A3 lines, day 49 and day 50
[6] = first step 6 days (1 μM PD0325901 or 100 nM PD173074), 201B7 and 1231A3 lines
[7] = first step 6 days (1 μM PD0325901 or 100 nM PD173074), 1231A3 line, day 43 of culture
[8] = first step 6 days (1 μM PD0325901 or 100 nM PD173074), Ff-I01 and QHJI01 lines, day 43 of culture
[9] = first step 6 days: 100 nM PD173074, 5, 10, 20 μM SU5402, QHJI01 and 1231A3 lines, day 49 of culture

SMILES: COC(=O)C[C@H](NC(=O)[C@H](C)NC(=O)[C@@H](NC(=O)OCc1ccccc1)C(C)C)C(=O)CF (racemic) [Z-VAD-FMK, benzyloxycarbonyl-Val-Ala-DL-Asp(OMe)-fluoromethylketone]
- emergence of a brown-black cell population ([1]; 20 μM in second step, 2.0×10^6 cells per well, first step MEK inhibitor, day 65 or 67 of culture): could be visually confirmed

SMILES: Cc1cc(C(=O)NOCCO)c(Nc2ccc(I)cc2F)n(C)c1=O [AZD-8330, 2-(2-fluoro-4-iodophenylamino)-N-(2-hydroxyethoxy)-1,5-dimethyl-6-oxo-1,6-dihydropyridine-3-carboxamide]
- emergence of a brown-black cell population [2, 5]: could be confirmed over a wide area

SMILES: O=S(=O)(c1cccc2cnccc12)N1CCCNCC1 [Fasudil, 1-(5-oquinolinesulfonyl)homopiperazine]
- concentration at which emergence of a brown-black cell population could be visually confirmed ([3]; tested 10, 30, 100 μM, 2.0×10^6 cells per well, first step FGF receptor inhibitor, day 41 of culture): not less than 10 μM
- emergence of a brown-black cell population ([1]; 10 μM in second step, 1.0×10^6 cells per well, first step FGF receptor inhibitor, day 48 of culture): could be visually confirmed

SMILES: NC(=O)c1ccc(-c2nc(-c3ccc4c(c3)OCO4)c(-c3ccccn3)[nH]2)cc1 [NODALi, 4-[4-(1,3-Benzodioxol-5-yl)-5-(pyridin-2-yl)-1H-imidazol-2-yl]benzamide]
- emergence of cells showing typical characteristics of RPE cell [4]: same level

SMILES: CCN(CC)CCCCNc1ncc2cc(-c3cc(OC)cc(OC)c3)c(NC(=O)NC(C)(C)C)nc2n1 [PD173074, N-[2-[[4-(Diethylamino)butyl]amino]-6-(3,5-dimethoxyphenyl)pyrido[2,3-d]pyrimidin-7-yl]-N′-(1,1-dimethylethyl)urea]
- emergence of a brown-black cell population ([2]; PD173074 100 nM, 6 days first step, AK03, ESSENTIAL 8 or STEMSURE hPSC Medium Δ w/o bFGF, 201B7 and/or 1231A3 line, 38 to 42 days of culture): could be confirmed over a wide area
- concentrations at which emergence of a brown-black cell population could be confirmed over a wide area ([2]; PD173074, all concentrations studied): 25 to 400 nM
- emergence of RPE cells showing typical characteristics of RPE cell [2, 6]: could be confirmed
- emergence of a brown-black cell population [2, 7]: could be confirmed over a wide area
- emergence of a brown-black cell population [2, 8]: could be confirmed over a wide area
- emergence of a brown-black cell population [2, 9]: could be confirmed over a wide area
- RT-PCR bands of retinal pigment epithelial cell markers RPE65, BEST1, CRALBP (RPE65, BEST1, CRALBP): clear bands could be confirmed

SMILES: O=C(NOCC1CC1)c1ccc(F)c(F)c1Nc1ccc(I)cc1Cl [PD184352, (2-[(2-Chloro-4-iodophenyl)amino]-N-cyclopropylmethoxy)-3,4-difluorobenzamide]
- emergence of a brown-black cell population [2, 5]: could be confirmed over a wide area

SMILES: O=C(NOC[C@H](O)CO)c1ccc(F)c(F)c1Nc1ccc(I)cc1F [PD0325901, N-[(2R)-2,3-Dihydroxypropoxy]-3,4-difluoro-2-[(2-fluoro-4-iodophenyl)amino]-benzamide]
- emergence of a brown-black cell population ([2]; 1 μM PD0325901, exposure for 3 days and 6 days, 1231A3 line, day 37 of culture): could be confirmed over a wide area
- emergence of colored cell population ([2]; 1 μM PD0325901, exposure for 13 days, 1231A3 line, day 37 of culture): sufficient emergence of colored cell population was also confirmed
- cells showing typical characteristics of RPE cell ([2]; 1 μM PD0325901, exposure for one day, 1231A3 line, day 37 of culture): almost no cell
- emergence of a brown-black cell population ([2]; PD0325901 1 μM (AK03 medium) or 0.03 μM (ESSENTIAL8 medium), 6 days first step, 201B7 and 1231A3 lines, 38 to 42 days of culture): could be confirmed over a wide area
- concentrations at which emergence of a brown-black cell population could be confirmed over a wide area ([2]; PD0325901, all concentrations studied): 250 to 4000 nM
- emergence of RPE cells showing typical characteristics of RPE cell [2, 6]: could be confirmed
- emergence of a brown-black cell population [2, 7]: could be confirmed over a wide area
- emergence of a brown-black cell population [2, 8]: could be confirmed over a wide area
- emergence of a brown-black cell population [2, 5]: could be confirmed over a wide area
- RT-PCR bands of retinal pigment epithelial cell markers RPE65, BEST1, CRALBP (RPE65, BEST1, CRALBP): clear bands could be confirmed

SMILES: Cc1c[nH]c(C=C2C(=O)Nc3ccccc32)c1CCC(=O)O [SU5402, 2-[(1,2-Dihydro-2-oxo-3H-indol-3-ylidene)methyl]-4-methyl-1H-pyrrole-3-propanoic acid]
- emergence of a brown-black cell population [2, 9]: could be confirmed over a wide area

SMILES: N#CC(=C(N)Sc1ccccc1N)C(C#N)=C(N)Sc1ccccc1N [U0126, 1,4-Diamino-2,3-dicyano-1,4-bis[2-aminophenylthio]butadiene]
- emergence of a brown-black cell population [2, 5]: could be confirmed over a wide area

SMILES: NCCNS(=O)(=O)c1ccc(Cl)c2ccncc12 [WNTi, N-(2-Aminoethyl) chloroisoquinoline-8-sulfonamide]
- brown-black area in the whole well ([4]; second step days 1-12, single agent 3 μM CKI-7 with 10 μM Y-27632, day 43): decreased
- emergence of cells showing typical characteristics of RPE cell [4]: sufficient number of cells

SMILES: C[C@@H](N)[C@H]1CC[C@H](C(=O)Nc2ccncc2)CC1 [Y-27632, trans-4-[(1R)-1-aminoethyl]-N-4-pyridinylcyclohexanecarboxamide]
- emergence of a brown-black cell population ([3]; 10 μM in second step (days 1-13) after FGF receptor inhibitor (100 nM PD173074) first step, day 42 of culture): could be visually confirmed
- concentration at which emergence of a brown-black cell population could be visually confirmed ([3]; tested 1-100 μM, first step FGF receptor inhibitor or MEK inhibitor, day 48 of culture): not less than 10 μM
- exposure period at which emergence of a brown-black cell population could be visually confirmed ([1]; 10 μM in second step, tested 3-20 days, first step MEK inhibitor, day 49 of culture): not less than 6 days
- emergence of a brown-black cell population ([1]; 10 μM, 3 days of exposure in second step, first step MEK inhibitor, day 49 of culture): confirmed only slightly
- emergence of a brown-black cell population ([1]; low concentration (1 μM) in second step, 2.0×10^6 cells per well (10 times general number), first step FGF receptor inhibitor or MEK inhibitor, day 50): could be visually confirmed
- concentration at which emergence of a brown-black cell population could be visually confirmed ([1]; second step, tested 1-100 μM, first step FGF receptor inhibitor or MEK inhibitor, day 50 of culture): not less than 3 μM
